As a reminder, the AC50 is the concentration at which the activity in the assay is half-maximal. The IC50 is the concentration that inhibits the measured activity by half. As a reminder, the EC50 is the concentration needed to bring the measured effect to its halfway point.

Experiment [1] has as its target T1, DNA repair protein RAD52 homolog (Homo sapiens, UniProt P43351).
T1 sequence (P43351 whole entry): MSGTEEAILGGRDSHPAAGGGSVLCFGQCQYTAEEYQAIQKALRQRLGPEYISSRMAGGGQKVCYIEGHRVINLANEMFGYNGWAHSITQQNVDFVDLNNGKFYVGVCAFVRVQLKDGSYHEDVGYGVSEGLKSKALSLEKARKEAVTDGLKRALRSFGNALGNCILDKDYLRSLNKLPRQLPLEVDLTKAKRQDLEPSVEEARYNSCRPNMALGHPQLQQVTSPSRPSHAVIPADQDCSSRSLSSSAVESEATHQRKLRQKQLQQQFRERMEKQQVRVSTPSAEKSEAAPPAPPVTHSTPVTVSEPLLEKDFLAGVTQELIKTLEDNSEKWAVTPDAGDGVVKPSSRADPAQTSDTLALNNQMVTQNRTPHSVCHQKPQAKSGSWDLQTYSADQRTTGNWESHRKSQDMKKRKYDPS
The class given is functional, biochemical.

In experiment [2] the target is T2, DNA repair and recombination protein RAD54-like (Homo sapiens, UniProt Q92698).
T2 sequence (Q92698 whole entry): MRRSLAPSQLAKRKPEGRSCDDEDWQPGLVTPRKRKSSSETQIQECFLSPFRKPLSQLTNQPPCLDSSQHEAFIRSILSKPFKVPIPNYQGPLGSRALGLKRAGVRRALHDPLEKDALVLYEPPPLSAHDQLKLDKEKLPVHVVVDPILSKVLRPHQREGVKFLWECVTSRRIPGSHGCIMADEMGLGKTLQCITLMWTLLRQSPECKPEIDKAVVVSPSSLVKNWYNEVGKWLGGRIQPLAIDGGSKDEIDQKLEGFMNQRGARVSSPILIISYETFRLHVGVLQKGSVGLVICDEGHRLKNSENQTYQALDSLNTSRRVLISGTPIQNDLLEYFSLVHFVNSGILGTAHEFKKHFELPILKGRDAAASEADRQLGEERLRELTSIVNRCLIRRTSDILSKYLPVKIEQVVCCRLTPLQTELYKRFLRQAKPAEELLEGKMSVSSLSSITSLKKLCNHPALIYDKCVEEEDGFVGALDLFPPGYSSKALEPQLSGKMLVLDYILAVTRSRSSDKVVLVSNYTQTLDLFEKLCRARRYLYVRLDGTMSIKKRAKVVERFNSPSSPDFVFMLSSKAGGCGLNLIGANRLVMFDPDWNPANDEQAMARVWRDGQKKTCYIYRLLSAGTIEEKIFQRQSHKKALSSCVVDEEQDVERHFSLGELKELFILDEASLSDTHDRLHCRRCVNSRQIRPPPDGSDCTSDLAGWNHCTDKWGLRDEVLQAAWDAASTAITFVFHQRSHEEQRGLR
The experiment is described as follows: RAD54 Holliday junction migration blockers – biochemical, fluorescence, cherry-picked samples, dose series, confirmation (AID 651657). The class given is functional.

The target in experiment [3] is T3, Estrogen receptor beta (Homo sapiens, UniProt Q92731). Put plainly: blockers of SRC-3 recruitment to ERβ – biochemical, ELISA, streptavidin-HRP readout, orthogonal assay, confirmation (AID 1060).
Experiment [4] in a line: blockers of HIV-1 envelope-mediated cell-cell fusion – cherry-pick, dose response (AID 652057). The class given is functional, cell-based.
Experiment [5] in a line: off-target signal loss in HeLa-CEM21 co-culture – HeLa F-luc CTL cells, cherry-picked, counter-screen for HIV-1 Env fusion inhibitor project, dose response (AID 652040).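 Also: potency for signal decrease marking cytotoxic or nonspecific inhibition.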 The class given is functional, cell-based. (A counterscreen serves to expose hits that act by an unwanted route or on another target.)
Experiment [6] is described as follows: HIV-1 AD8 envelope cell-cell fusion blockers – cherry-pick, dose response (AID 652062).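 Also: luciferase signal from cell-cell fusion driven by HIV-1 clade B AD8 Env; potency is for inhibitors of fusion seen as a drop in luminescence.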 The format is functional, cell-based.
The nature of experiment [7]: blockers of HIV-1 ZM109 envelope-driven cell-cell fusion – HeLa effector, CEM target cells, luciferase, cherry-pick, dose response (AID 652058).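 Also: luciferase signal from HIV-1 Env mediated cell-cell fusion of effector and target cells.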 The format is functional, cell-based.
For experiment [8], the target named is T4, Histone-lysine N-methyltransferase NSD2 (Homo sapiens, UniProt O96028).
T4 sequence (O96028 whole entry): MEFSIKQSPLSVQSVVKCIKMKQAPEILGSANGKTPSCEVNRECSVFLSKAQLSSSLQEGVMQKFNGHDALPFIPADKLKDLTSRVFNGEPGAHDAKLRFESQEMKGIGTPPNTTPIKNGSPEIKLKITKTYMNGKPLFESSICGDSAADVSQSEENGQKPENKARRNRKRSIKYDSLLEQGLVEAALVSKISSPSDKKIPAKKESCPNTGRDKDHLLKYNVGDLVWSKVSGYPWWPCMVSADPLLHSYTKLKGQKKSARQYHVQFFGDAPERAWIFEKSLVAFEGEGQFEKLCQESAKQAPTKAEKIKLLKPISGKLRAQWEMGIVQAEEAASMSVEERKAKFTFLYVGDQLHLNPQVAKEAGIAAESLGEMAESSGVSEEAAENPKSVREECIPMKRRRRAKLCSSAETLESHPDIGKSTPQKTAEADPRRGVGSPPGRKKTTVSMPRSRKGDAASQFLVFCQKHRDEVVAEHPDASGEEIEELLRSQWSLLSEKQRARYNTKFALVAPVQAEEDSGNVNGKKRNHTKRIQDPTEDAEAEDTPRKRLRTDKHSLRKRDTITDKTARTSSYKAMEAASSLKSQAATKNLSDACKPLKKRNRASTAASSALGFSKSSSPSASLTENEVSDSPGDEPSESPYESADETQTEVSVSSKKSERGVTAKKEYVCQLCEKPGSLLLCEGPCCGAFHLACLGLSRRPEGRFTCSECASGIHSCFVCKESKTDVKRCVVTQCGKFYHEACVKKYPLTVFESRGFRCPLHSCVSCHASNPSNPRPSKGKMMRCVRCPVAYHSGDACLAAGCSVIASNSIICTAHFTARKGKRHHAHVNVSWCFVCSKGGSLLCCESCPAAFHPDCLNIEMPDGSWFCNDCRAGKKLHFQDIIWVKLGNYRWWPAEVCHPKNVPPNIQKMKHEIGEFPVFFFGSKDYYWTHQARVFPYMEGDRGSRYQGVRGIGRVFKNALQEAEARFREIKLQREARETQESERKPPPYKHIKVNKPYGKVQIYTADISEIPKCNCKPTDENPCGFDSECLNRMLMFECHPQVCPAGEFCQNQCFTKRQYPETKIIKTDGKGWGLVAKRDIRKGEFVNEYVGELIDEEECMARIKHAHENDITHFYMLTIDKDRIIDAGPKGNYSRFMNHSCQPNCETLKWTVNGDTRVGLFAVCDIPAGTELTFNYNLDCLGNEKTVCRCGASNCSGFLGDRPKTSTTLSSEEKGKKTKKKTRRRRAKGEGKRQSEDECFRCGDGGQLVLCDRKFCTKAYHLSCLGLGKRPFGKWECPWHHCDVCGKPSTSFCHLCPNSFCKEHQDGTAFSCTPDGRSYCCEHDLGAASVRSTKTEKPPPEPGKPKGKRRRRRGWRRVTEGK
The format is biochemical.

For experiment [9], the target named is T3, Estrogen receptor beta.
Experiment [10] in a line: HCT116 cell viability decrease, GSK3B pretreatment – CellTiter-Glo, IC50, dose response (AID 1117339). The following applies: HCT-116. The format is functional. Background: ATP-based viability assays read luminescence as a measure of living cells.
A short description of experiment [11]: CellTiter-Glo luminescence survival assay, SW480 colon tumor line, concentration-response curve, half-maximal inhibitory concentration (AID 1117338). The class given is functional.
The nature of experiment [12]: cytotoxicity toward HT-29 cells – cell-based, CellTiter-Glo luminescence, IC50, dose response (AID 1117330). The class given is functional.
Experiment [13] in a line: RKO cell viability reduction, dose response, CellTiter-Glo luminescence (AID 1117322). The format is functional.
Experiment [14] can be described thus: Reduced DLD-1 viability, concentration-response, CellTiter-Glo luminescence (AID 1117352). The class given is functional.
Experiment [15] can be described thus: SNU-C1 cell viability reduction, dose response, CellTiter-Glo luminescence (AID 1117323). The class given is functional, cell-based.
Experiment [16] can be described thus: cytotoxicity toward Colo320 cells – cell-based, CellTiter-Glo luminescence, IC50, dose response (AID 1117334). The following applies: COLO 320. The format is functional.
Experiment [17] is described as follows: cytotoxicity toward HCT116 cells – cell-based, CellTiter-Glo luminescence, IC50, dose response (AID 1117332). The class given is functional. The following applies: HCT-116.
Experiment [18] can be described thus: blockade of melanocortin 4 receptor signaling – cell-based, plate reader, cherry pick, counter-screen for LGR2 antagonist project, dose response (AID 743444).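 Also: transfected HEK 293 cells stimulated with alpha-MSH peptide; potency of inhibitors of the alpha-MSH evoked signal.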 The format is functional.
Experiment [19] is described as follows: A549 cell cytotoxicity, dose response, cytotoxicity control, plate reader, cherry-pick, antagonist series (AID 743412). The format is functional, cell-based.
A short description of experiment [20]: fluconazole-exposed Candida albicans growth modulators – fluorescence, retest, confirmation (AID 2467). The class given is functional, cell-based.
The next experiment deals with Large T antigen (Simian virus 40, UniProt P03070). The class given is functional, Betapolyomavirus macacae.
A short description of experiment [21]: NIH-3T3 fibroblast cytotoxicity, dose response, cytotoxicity control, cell-based, fluorescence, Alamar Blue, secondary assay (AID 2327).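 Also: NIH-3T3 mouse fibroblasts cultured with fluconazole at 8 µg/mL.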 The format is functional.

Activity calls are given as the source filed them.

T3 sequence (Q92731 whole entry, the tested form may be a part): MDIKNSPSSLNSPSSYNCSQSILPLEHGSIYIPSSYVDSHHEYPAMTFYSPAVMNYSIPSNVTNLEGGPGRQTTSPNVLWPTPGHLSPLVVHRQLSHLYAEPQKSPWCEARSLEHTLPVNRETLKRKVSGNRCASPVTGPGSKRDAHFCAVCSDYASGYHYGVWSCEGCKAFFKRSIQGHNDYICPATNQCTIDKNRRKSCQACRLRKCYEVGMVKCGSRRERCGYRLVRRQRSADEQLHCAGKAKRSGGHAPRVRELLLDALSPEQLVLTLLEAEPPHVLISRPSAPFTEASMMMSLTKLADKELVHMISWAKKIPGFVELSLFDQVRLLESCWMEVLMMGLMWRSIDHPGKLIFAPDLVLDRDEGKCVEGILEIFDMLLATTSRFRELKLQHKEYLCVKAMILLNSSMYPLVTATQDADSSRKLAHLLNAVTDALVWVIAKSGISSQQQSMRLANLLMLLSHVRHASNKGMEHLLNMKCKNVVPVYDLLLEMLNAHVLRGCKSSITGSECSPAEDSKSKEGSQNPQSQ
Chain of Large T antigen (P03070 whole entry): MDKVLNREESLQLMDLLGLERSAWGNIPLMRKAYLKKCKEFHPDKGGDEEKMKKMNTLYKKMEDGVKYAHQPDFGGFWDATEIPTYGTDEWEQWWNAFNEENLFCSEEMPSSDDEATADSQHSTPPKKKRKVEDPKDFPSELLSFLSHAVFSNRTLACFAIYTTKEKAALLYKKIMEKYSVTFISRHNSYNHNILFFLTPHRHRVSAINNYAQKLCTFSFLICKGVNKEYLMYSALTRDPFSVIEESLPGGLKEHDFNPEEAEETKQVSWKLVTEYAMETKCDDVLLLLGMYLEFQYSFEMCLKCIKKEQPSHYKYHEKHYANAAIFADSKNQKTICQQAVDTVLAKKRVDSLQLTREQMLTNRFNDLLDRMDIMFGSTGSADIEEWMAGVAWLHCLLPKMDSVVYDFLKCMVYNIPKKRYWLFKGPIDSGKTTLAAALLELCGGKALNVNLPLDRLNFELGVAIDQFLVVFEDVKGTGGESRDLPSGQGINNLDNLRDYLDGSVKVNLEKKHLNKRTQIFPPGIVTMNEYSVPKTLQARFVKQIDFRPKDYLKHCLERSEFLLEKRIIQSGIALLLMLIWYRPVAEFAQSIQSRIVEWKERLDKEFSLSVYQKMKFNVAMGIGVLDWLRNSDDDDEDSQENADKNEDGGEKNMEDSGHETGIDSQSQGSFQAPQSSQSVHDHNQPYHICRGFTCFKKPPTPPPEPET

As for `Cn1c2ccccc2c(=O)c2cc(NCCCN3CCOCC3)ccc21`, the AC50 is 7.92 µM (active) in [1] and 11.7 µM (active) in [2].
Regarding `COCCOC(=O)c1c(C)oc2ccc(NS(=O)(=O)c3ccc(C(=O)O)cc3)cc12`, the IC50 against Estrogen receptor beta [3] is 3.82 µM (not active).
Turning to `O=C(N(c1ccccn1)c1ccccn1)C12CC3CC(CC(Cl)(C3)C1)C2`, the AC50 in experiment [4] is 5.04 µM (active); in experiment [5] it was 6.95 µM (active); in experiment [6] it was 9.92 µM (active); in [7], 4.96 µM (active).
On to `CCN(CC)CCNc1nc(SC)nc2sc3c(c12)CCN(C)C3`, for which the AC50 is 5.18 µM (active) in experiment [1], > 20 µM (inactive) in experiment [8] and 95.3 µM (active) in [2].
Regarding `Cc1cc(C)c(C(=O)COc2cccnc2[N+](=O)[O-])cc1C`, the 50% inhibitory concentration (IC50) at Estrogen receptor beta [9] was 7.21 µM (active); against Estrogen receptor beta [3], > 50 µM (not active).
As to `CC[C@]1(C(=O)OC)[C@H]2C(=O)N(Cc3ccccc3)C(=O)[C@H]2[C@H]2CN=C(SCc3ccccc3)N21`, the AC50 is 1.01 µM (active) in experiment [4], 1.55 µM (active) in experiment [5], 1.68 µM (active) in experiment [6] and 1.16 µM (active) in [7].
`COc1ccc(NC(=O)Nc2ccc3c(c2)CC(=O)N([C@H](C)CO)C[C@H](C)[C@H](CN(C)S(=O)(=O)c2cccs2)O3)cc1`: the concentration at half-maximal activity (AC50) in experiment [4] was 0.96 µM (active); in experiment [6] it was 5.21 µM (active); in [7] it was 1.55 µM (active).
`COC(=O)C1=C(C)NC(C)=C(C(=O)O[C@@H]2CCCN(Cc3ccccc3)C2)[C@@H]1c1cccc([N+](=O)[O-])c1`: the IC50 in [10] was 5.31 µM (inactive); in [11], > 20 µM (inactive); in experiment [12] it was 5.27 µM (inactive); in experiment [13] it was 8.05 µM (inactive); in [14], 7.96 µM (inactive); in experiment [15], 5.76 µM (inactive). Moreover, the IC50 in experiment [16] was 19.5 µM (inactive); in experiment [17] it was 4.28 µM (active).
`O=C(Cc1ccncc1)NCC[C@H]1CC[C@H](NC(=O)C2CCCC2)[C@H](CO)O1`: the values for the AC50 in experiment [18] and in experiment [19] were 42.1 µM (active) and > 52 µM (inactive), respectively.
For `CC1(C)[C@H](C=C(Cl)Cl)[C@@H]1C(=O)OCc1c(F)c(F)cc(F)c1F`, the IC50 in [10], in [11], in experiment [12], in experiment [13], in experiment [14] and in experiment [15] was > 20 µM (inactive) in each case. Moreover, the IC50 in experiment [16] and in experiment [17] was > 20 µM (inactive) throughout.
As for `CCCCC[C@@H](O)CC[C@H]1[C@@H]2Cc3cccc(OCC(=O)O)c3C[C@@H]2C[C@@H]1O`, the IC50 in experiment [10], in experiment [11], in experiment [12], in [13], in experiment [14] and in experiment [15] was > 20 µM (inactive) throughout. For the same compound, the IC50 in [16] and in experiment [17] was > 20 µM (inactive) each time.
For `CCCCN1CCCC1C(=O)Nc1c(C)cc(C)cc1C` (configuration not stated) [BUMECAINE], the IC50 in [10], in experiment [11], in experiment [12], in [13], in experiment [14] and in experiment [15] was > 20 µM (inactive) in each case. The IC50 in experiment [16] and in experiment [17] was > 20 µM (inactive) in each case.
For the compound `COc1cc2c(cc1O)CC[n+]1cc3c(OC)c(OC)ccc3cc1-2` [JATRORRHIZINE], the AC50 in experiment [1] is 15.2 µM (active). Further, the figures for the EC50 in [20] and in experiment [21] were 2.91 µM (active) and > 160 µM (inactive), respectively. Further, the IC50 at Large T antigen is 10.1 µM (active).

The values above are taken from ChEMBL document CHEMBL1201862, “PubChem BioAssay data set” (2004).
